Measurements published in patent US9359346B2, “Benzamide derivative and use thereof” (VIVOZON, INC., priority 2011, dated 2016).
Like-named read-outs stand apart in the source and are kept apart here.

Assays:
GlyT2 = molecular target: T1, GlyT2 (Rattus norvegicus, UniProt P58295); test: FLIPR membrane potential assay for GlyT2 target activity (T-rex-293-rGlyT2 cells); assay type: cell-based; details: read-out: GlyT2 % inhibition
T1 construct: expressed in transfected cells
T1 sequence (P58295 1-799): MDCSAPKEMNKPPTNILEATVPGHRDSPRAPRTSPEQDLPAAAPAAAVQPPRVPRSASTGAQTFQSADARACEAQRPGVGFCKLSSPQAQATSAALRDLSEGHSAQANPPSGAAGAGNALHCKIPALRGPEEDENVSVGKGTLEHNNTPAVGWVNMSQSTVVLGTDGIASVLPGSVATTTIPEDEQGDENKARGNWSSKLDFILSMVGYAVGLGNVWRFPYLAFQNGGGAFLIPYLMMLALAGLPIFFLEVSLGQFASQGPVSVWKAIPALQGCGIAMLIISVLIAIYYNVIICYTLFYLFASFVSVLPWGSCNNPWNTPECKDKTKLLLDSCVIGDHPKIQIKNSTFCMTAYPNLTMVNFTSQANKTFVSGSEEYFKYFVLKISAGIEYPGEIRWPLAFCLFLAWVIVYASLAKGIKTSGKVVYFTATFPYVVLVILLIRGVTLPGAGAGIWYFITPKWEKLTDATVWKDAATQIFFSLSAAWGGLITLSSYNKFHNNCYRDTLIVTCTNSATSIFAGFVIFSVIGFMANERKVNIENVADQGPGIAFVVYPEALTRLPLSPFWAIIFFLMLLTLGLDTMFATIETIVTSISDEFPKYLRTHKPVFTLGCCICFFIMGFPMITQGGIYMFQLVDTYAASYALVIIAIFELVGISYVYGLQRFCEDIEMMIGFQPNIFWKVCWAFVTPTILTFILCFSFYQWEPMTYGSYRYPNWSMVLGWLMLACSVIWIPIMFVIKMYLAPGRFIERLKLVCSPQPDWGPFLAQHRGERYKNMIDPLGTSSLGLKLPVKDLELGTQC
Description: GlyT2 (Glycine transporter type 2) is an electrogenic carrier associated with Na^+/Cl^− ion transportation, primarily distributed around the spinal cord part, and has an important role in the transfer of a pain signal in the spinal cord.
In order to identify the fact that the novel compound of the present invention has GlyT2 targeting activity, a membrane potential assay was performed. FLIPR Membrane Potential Assay is used to measure ion channel modulation caused by an increase or decrease in fluorescence signal due to variations of cellular membrane potential.
First, pcDNA4/TO vector encoding GlyT2 of the rat in HEK293 cell was transfected to prepare a stable recombinant cell line, i.e., T-rex-293-rGlyT2. A […] (Greiner #655090) coated with poly-D-lysine was prepared, and the above recombinant cells (T-rex-293-rGlyT2) were seeded at 3.2×10^4/well therein using a medium containing 15 μg/ml of tetracycline. After this, incubation was conducted at 37° C. for 48 hours under 5% CO2 conditions to express GlyT2. 10 ml of assay buffer (1×HBSS, 20 mM HEPES, pH 7.4) was added to a blue dye solution and sufficiently dissolved therein to prepare a membrane potential dye solution. After removing the medium from the well showing GlyT2 expression, the membrane potential dye solution was added to the well in an amount of 100 μl/well and incubated for 20 minutes.
According to the FLIPR Membrane Potential Assay kit's protocol, SoftMax Pro Software of FlexStation 3 software (Molecular Devices, US) was set up. An extent of GlyT2 expression was determined such that the extent of cellular membrane depolarization relative to an administered amount of glycine during glycine treatment is indicated in relative fluorescence units (RFU), and RFU (Max-Min) is calculated by subtracting the minimum value from the maximum value of RFU. After firstly treating 10 uM of the novel compound according to the present invention, glycine was treated and RFU (Max-Min) for glycine administration was determined. Then, with the determined result, the extent of depolarization inhibition (% inhibition) was assessed for each compound, compared to a positive control.
The positive control used herein was ORG25543 (500 nM) having strong inhibitory efficacy specific to GlyT2.
For GlyT2 inhibitory efficacy, the efficacy of the compound ORG25543 (500 nM) was defined as 100%. Similarly, for 5HT2A inhibitory efficacy, the efficacy of MDL11939 (100 nM) was defined as 100%. Therefore, the target inhibitory efficacy of each compound was indicated in a relative value compared to the above defined efficacy.

[1] = tested on: neuropathic pain model (Chung model); test: Neuropathic pain model (Chung model, SNL), paw withdrawal threshold; assay type: in vivo, rat; details: for pain suppression efficacy, antagonist alone: single administration, ORG-25543 10 or 20 mg/kg, FIG. 25(a)
5HT2A = 5HT2A (Homo sapiens, UniProt P28223); test: FLIPR calcium assay for 5HT2A target activity (transfected HEK293 cells); assay type: cell-based
5HT2A, sequence (P28223 whole entry, species assumed): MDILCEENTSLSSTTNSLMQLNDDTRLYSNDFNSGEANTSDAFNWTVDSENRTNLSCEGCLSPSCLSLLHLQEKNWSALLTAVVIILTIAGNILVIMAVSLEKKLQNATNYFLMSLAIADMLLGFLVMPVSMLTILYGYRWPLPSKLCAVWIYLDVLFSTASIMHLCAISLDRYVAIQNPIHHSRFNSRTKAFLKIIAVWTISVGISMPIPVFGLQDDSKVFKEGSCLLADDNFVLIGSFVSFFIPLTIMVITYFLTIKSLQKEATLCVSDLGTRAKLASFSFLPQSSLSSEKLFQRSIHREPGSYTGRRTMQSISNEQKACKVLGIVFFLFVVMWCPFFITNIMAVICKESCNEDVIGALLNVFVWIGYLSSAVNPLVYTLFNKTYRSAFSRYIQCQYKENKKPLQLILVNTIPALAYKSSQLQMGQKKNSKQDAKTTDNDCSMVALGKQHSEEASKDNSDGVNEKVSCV

formalin model = test: Formalin pain model, licking and shaking; assay type: in vivo, rat; details: for pain relieving effect, antagonist alone: single administration, FIG. 26(a); for pain behavior (licking and shaking) induced by formalin: 12.5, 25 and 50 mg/kg, 5% formalin i.pl., FIGS. 23 and 24
[2] = tested on: serotonin-derived itching; test: Itching model, serotonin-derived itching; assay type: in vivo, rat; details: 50 mg/kg s.c.; serotonin 25 μg/50 μl intradermal; vs naloxone 5 mg/kg intraperitoneal
[3] = tested on: poly-L-arginine-derived itching; test: Itching model, poly-L-arginine-derived itching; assay type: in vivo, rat; details: 50 mg/kg s.c.; poly-L-arginine 200 μg/50 μl intradermal; vs naloxone 5 mg/kg intraperitoneal
[4] = 10 uM compound, then glycine, relative to ORG25543 (500 nM) defined as 100%
[5] = subcutaneous 50 mg/kg or oral 100 mg/kg, gabapentin 55 to 70 mg/kg intraperitoneal, FIGS. 1 to 22
[6] = HEK293, read-out: 5HT2A % inhibition
[7] = HEK293, 10 uM compound, then serotonin, relative to MDL11939 (100 nM) defined as 100%, read-out: 5HT2A % inhibition

CCCCOc1c(OC)cc(C(=O)NCC(c2ccc(OC)cc2)N(C)C)cc1OC (stereo not shown) [VVZ-024] was tested, and the inhibition at 10 µM (GlyT2; [4]) was 96.7%, the “analgesic efficacy compared to GBP positive control” value [1, 5] was “analgesic efficacy substantially equal to 0 °C superior to GBP” and the inhibition at 10 µM (5HT2A; [6]) was 70.5%.

CN(C)C(CNC(=O)c1cccc(C(F)(F)F)c1)c1ccccc1 (stereo not shown) [VVZ-078] was tested, and the “analgesic efficacy compared to GBP positive control” value [1, 5] was “analgesic efficacy substantially equal to 0 °C superior to GBP”.

In the case of OC(c1ccccc1)C1CCN(CCc2ccccc2)CC1 (stereo not shown) [MDL 11,939, reference compound], the “pain suppression efficacy, antagonist alone” value (from here on “pain suppression efficacy”) [1] is reported as “no or very little pain relieving effect” and the “pain relieving effect, antagonist alone” value (formalin model) is reported as “no or very little pain relieving effect”.

In the case of CCCCOc1c(OC)cc(C(=O)NCC2(N3CCN(C)CC3)CCCCC2)cc1OC [VVZ-032], the “analgesic efficacy compared to GBP positive control” value [1, 5] is reported as “analgesic efficacy substantially equal to 0 °C superior to GBP”.

In the case of CN(C)C1(CNC(=O)c2ccc(OCc3ccccc3)cc2)CCOCC1 [VVZ-038], the inhibition at 10 µM (GlyT2) is reported as 108%, the “analgesic efficacy compared to GBP positive control” value [1, 5] is reported as “analgesic efficacy substantially equal to 0 °C superior to GBP” and the inhibition at 10 µM (5HT2A; [6]) is reported as 96.1%.

CCCCOc1c(OC)cc(C(=O)Nc2nnc(C)s2)cc1OC [VVZ-025] was tested, and the “analgesic efficacy compared to GBP positive control” value [1, 5] was “analgesic efficacy substantially equal to 0 °C superior to GBP”.

In the case of CCCCOc1c(OC)cc(C(=O)NCC2(NC)CCOCC2)cc1OC [VVZ-068], the inhibition at 10 µM (GlyT2; [4]) is reported as 105%, the “analgesic efficacy compared to GBP positive control” value [1, 5] is reported as “analgesic efficacy substantially equal to 0 °C superior to GBP” and the “itching behavior (number and duration of scratching) induced by serotonin” value [2] is reported as “suppressing itching behavior”. For the same compound, the “itching behavior (number and duration of scratching) induced by poly-L-arginine” value [3] was “suppressing itching behavior”, the “pain behavior (licking and shaking) induced by formalin” value (formalin model) was “suppressing pain behavior induced by formalin” and the inhibition at 10 µM (5HT2A; [7]) was 69.1%.

In the case of CN(C)C1(CNC(=O)c2cccc(C(F)(F)F)c2)CCC(F)(F)CC1 [VVZ-062], the “analgesic efficacy compared to GBP positive control” value [1, 5] is reported as “analgesic efficacy substantially equal to 0 °C superior to GBP”.

For COc1cc(C(=O)NCC2(N(C)C)CCCC2)cc(OC)c1OCc1ccccc1 [ORG-25543, reference compound], the “pain suppression efficacy” value [1] was “did not show pain suppression efficacy”, the “pain suppression efficacy” value ([1]; listed as ORG2553) was “no or very little pain relieving effect” and the “pain relieving effect, antagonist alone” value (formalin model) was “no or very little pain relieving effect”.

COc1cc(C(=O)NCC(=O)N2CCC(C)CC2)cc(OC)c1OCc1ccccc1 [VVZ-040] was tested, and the “analgesic efficacy compared to GBP positive control” value [1, 5] was “analgesic efficacy substantially equal to 0 °C superior to GBP”.

In the case of CCCCOc1c(OC)cc(C(=O)NCC2(N(C)C)CCOCC2)cc1OC [VVZ-005], the inhibition at 10 µM (GlyT2) is reported as 101%, the “analgesic efficacy compared to GBP positive control” value ([1]; rat, in vivo) is reported as “analgesic efficacy substantially equal to 0 °C superior to GBP” and the “itching behavior (number and duration of scratching) induced by serotonin” value [2] is reported as “suppressing itching behavior”. For the same compound, the “itching behavior (number and duration of scratching) induced by poly-L-arginine” value [3] was “suppressing itching behavior”, the “pain behavior (licking and shaking) induced by formalin” value (formalin model) was “suppressing pain behavior induced by formalin” and the inhibition at 10 µM (5HT2A; [6]) was 61.2%.

CCCCOc1c(OC)cc(C(=O)NCC2(N(C)CC)CCOCC2)cc1OC [VVZ-041] was tested, and the inhibition at 10 µM (GlyT2; [4]) was 79.2%, the “analgesic efficacy compared to GBP positive control” value [1, 5] was “analgesic efficacy substantially equal to 0 °C superior to GBP” and the inhibition at 10 µM (5HT2A; [7]) was 105%.
